# Assay results from patent US10208033B2, “β-carboline, dihydro-β-carboline and tetrahydro-β-carboline alkaloid derivatives and preparation methods same and use in aspects of preventing and treating plant viruses, fungicides and insecticides” (NANKAI UNIVERSITY, priority 2013, dated 2019).
# How the values were obtained:
# Cercospora arachidicola = assay: Fungicidal (bactericidal) activity in vitro, PDA colony diameter; type: cell-based; details: 50 mg/kg; for inhibition of growth at 50 mg/kg: Mycosphaerella arachidis, 96 h
# [1] = system: tobacco mosaic virus (TMV); assay: Anti-TMV in vivo inactivation; parameters: species or system tobacco mosaic virus (host Nicotiana tabacum L.cv.Xanthi NN); details: for inhibition at 100 µg/mL / inhibition at 500 µg/mL: Tobacco mosaic virus, read-out: Relative inhibition rate (%) In vivo inactivation
# armyworms = type: in vivo; details: concentration 600 mg/kg
# mosquito larvae = assay: whole plant or invertebrate; details: for mortality at 5 mg/kg / mortality at 10 mg/kg: Culex pipiens, read-out: Mosquito larvae Mortality (%); for mortality at 5 mg/kg / mortality at 10 mg/kg / Mosquito larvae Mortality (%): 24 h; for activity against culex pipiens larvae (in words): at 5 mg/kg
# Summary of the method: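 Early fourth-instar Culex pipiens pallens larvae from an indoor colony, 10 per beaker, exposed to test compound at 5 ppm in water, diluted from a 1000 ppm acetone mother solution. Blank: water containing 0.5 mL test solvent.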
# Rhizoctonia solani = assay: Fungicidal (bactericidal) activity in vitro, PDA colony diameter; type: cell-based; details: 50 mg/kg; for inhibition of growth at 50 mg/kg: Rhizoctonia solani, 96 h
# Botrytis cinerea = assay: as above; type: cell-based; details: 50 mg/kg; for inhibition of growth at 50 mg/kg: Botrytis cinerea, 96 h
# cucumber fusarium wilt = assay: as above; type: cell-based; details: 50 mg/kg; for inhibition of growth at 50 mg/kg: Fusarium, 96 h
# Rhizoctonia cereali = assay: as above; type: cell-based; details: 50 mg/kg; for inhibition of growth at 50 mg/kg: Rhizoctonia, 96 h
# Phytophthora capsici = assay: as above; type: cell-based; details: 50 mg/kg; for inhibition of growth at 50 mg/kg: Phytophthora capsici, 96 h
# [2] = system: tobacco mosaic virus (TMV); assay: Anti-TMV in vivo protective effect; parameters: species or system tobacco mosaic virus (host Nicotiana tabacum L.cv.Xanthi NN); details: for inhibition at 100 µg/mL / inhibition at 500 µg/mL: Tobacco mosaic virus, read-out: Relative inhibition rate (%) In vivo protection
# Bipolaria maydis = assay: organism not typed; type: cell-based; details: for inhibition at 50 mg/kg: read-out: Bactericidal activity (%) Bipolaria maydis
# [3] = system: Colletotrichum orbiculare; assay: Fungicidal (bactericidal) activity in vitro, PDA colony diameter; type: cell-based; details: 50 mg/kg; for inhibition of growth at 50 mg/kg: Colletotrichum orbiculare, 96 h
# Fusarium graminearumt = assay: microbe, parasite or virus in culture; type: cell-based; details: for inhibition of growth at 50 mg/kg: Fusarium, 96 h, read-out: Bactericidal activity (%) Fusarium graminearumt
# corn borers [4] = assay: whole plant or invertebrate; details: read-out: Corn borer Mortality (%)
# Sclerotinia scleotiorum = assay: Fungicidal (bactericidal) activity in vitro, PDA colony diameter; type: cell-based; details: 50 mg/kg; for inhibition of growth at 50 mg/kg: Sclerotinia, 96 h
# [5] = system: tobacco mosaic virus (TMV); assay: Anti-TMV in vitro effect (half-leaf soaking); type: cell-based, tobacco mosaic virus (host Nicotiana tabacum L.cv.Xanthi NN); details: for inhibition at 100 µg/mL / inhibition at 500 µg/mL: Tobacco mosaic virus, read-out: Relative inhibition rate (%) In vitro activity
# potato late blight = assay: microbe, parasite or virus in culture; type: cell-based; details: for inhibition of growth at 50 mg/kg: Phytophthora infestans, 96 h, read-out: Bactericidal activity (%) potato late blight
# cotton bollworms = assay: whole plant or invertebrate; details: for mortality at 600 mg/kg: Helicoverpa armigera, in Gossypium hirsutum, read-out: Cotton bollworm Mortality (%)
# Experimental: Experimental method of cotton bollworms: feed and drug mixing method: measure 3 mL of prepared solution and add it to about 27 g of newly prepared feed, thereby obtaining needed concentration through dilution by 10 times.
# Fusarium fujikuroi = assay: Fungicidal (bactericidal) activity in vitro, PDA colony diameter; type: cell-based; details: 50 mg/kg; for inhibition of growth at 50 mg/kg: Fusarium fujikuroi, 96 h
# [6] = system: armyworms, cotton bollworms and corn borers; assay: Insecticidal activity, overall statements on Table 3; type: in vivo; details: Table 3, 600 mg/kg
# Alternaria solani = assay: Fungicidal (bactericidal) activity in vitro, PDA colony diameter; type: cell-based; details: 50 mg/kg; for inhibition of growth at 50 mg/kg: Alternaria solani, 96 h
# [7] = system: tobacco mosaic virus (TMV); assay: Anti-TMV in vivo therapeutic effect; parameters: species or system tobacco mosaic virus (host Nicotiana tabacum L.cv.Xanthi NN); details: for inhibition at 100 µg/mL / inhibition at 500 µg/mL: Tobacco mosaic virus, read-out: Relative inhibition rate (%) In vivo therapy
# Macrophoma kawatsukai = assay: Fungicidal (bactericidal) activity in vitro, PDA colony diameter; type: cell-based; details: 50 mg/kg
# corn borers [8] = details: concentration 600 mg/kg
compound,measurement,setting,value
"CCCCNC(=O)[C@@H]1Cc2c([nH]c3ccccc23)[C@H](C)N1 [Ib-16, (1S, 3S)—N-butyl-1-methyl-2,3,4,9-tetrahydro-pyridino [3,4-b] indol-3-formamide]",inhibition of growth at 50 mg/kg,Cercospora arachidicola,84.6%
same,inhibition at 100 µg/mL,[1]; treatment dose 100 μg/mL,13.5%
same,inhibition at 500 µg/mL,[1]; treatment dose 500 μg/mL,44%
same,Armyworm Mortality (%),armyworms,65%
same,mortality at 5 mg/kg,mosquito larvae,60%
same,mortality at 10 mg/kg,mosquito larvae,100%
same,activity against culex pipiens larvae (in words),mosquito larvae,still show high activity
same,inhibition of growth at 50 mg/kg,Rhizoctonia solani,46.1%
same,inhibition of growth at 50 mg/kg,Botrytis cinerea,18.2%
same,inhibition of growth at 50 mg/kg,cucumber fusarium wilt,23.1%
same,inhibition of growth at 50 mg/kg,Rhizoctonia cereali,57.9%
same,inhibition of growth at 50 mg/kg,Phytophthora capsici,18.8%
same,inhibition at 100 µg/mL,[2]; treatment dose 100 μg/mL,15.8%
same,inhibition at 500 µg/mL,[2]; treatment dose 500 μg/mL,42.1%
same,inhibition at 50 mg/kg,Bipolaria maydis,18.2%
same,inhibition of growth at 50 mg/kg,[3],28.6%
same,inhibition of growth at 50 mg/kg,Fusarium graminearumt,14.3%
same,mortality at 600 mg/kg,corn borers [4],50%
same,inhibition of growth at 50 mg/kg,Sclerotinia scleotiorum,0%
same,inhibition at 100 µg/mL,[5]; treatment dose 100 μg/mL,0%
same,inhibition at 500 µg/mL,[5]; treatment dose 500 μg/mL,38.4%
same,inhibition of growth at 50 mg/kg,potato late blight,22.7%
same,mortality at 600 mg/kg,cotton bollworms,50%
same,inhibition of growth at 50 mg/kg,Fusarium fujikuroi,14.3%
same,"activity against armyworms, cotton bollworms and corn borers (in words)",[6],broad-spectrum activity
same,inhibition of growth at 50 mg/kg,Alternaria solani,21.1%
same,inhibition at 100 µg/mL,[7]; treatment dose 100 μg/mL,21.1%
same,inhibition at 500 µg/mL,[7]; treatment dose 500 μg/mL,44.9%
same,inhibition at 50 mg/kg,Macrophoma kawatsukai,33.3%
"Cc1nccc2c1[nH]c1cc(OC(=O)C(C)(C)C)ccc12 [Ia-8, Tert-valerate (1-methylpyridino [3,4-b]indol-7)-ester]",Bactericidal activity (%) Cercospora arachidicola,Cercospora arachidicola,71.4%
same,Relative inhibition rate (%) In vivo inactivation,[1]; treatment dose 100 μg/mL,0%
same,Relative inhibition rate (%) In vivo inactivation,[1]; treatment dose 500 μg/mL,15.3%
same,Corn borer Mortality (%),corn borers [8],65%
same,Armyworm Mortality (%),armyworms,70%
same,activity against culex pipiens larvae (in words),mosquito larvae,still show high activity
same,Mosquito larvae Mortality (%),mosquito larvae; concentration 5 mg/kg,60%
same,Mosquito larvae Mortality (%),mosquito larvae; concentration 10 mg/kg,100%
same,Bactericidal activity (%) Rhizoctonia solani,Rhizoctonia solani,42.9%
same,Bactericidal activity (%) Botrytis cinerea,Botrytis cinerea,54.6%
same,Bactericidal activity (%) Cucumber fusarium wilt,cucumber fusarium wilt,52.4%
same,Bactericidal activity (%) Rhizoctonia cereali,Rhizoctonia cereali,90.6%
same,Bactericidal activity (%) Phytophthora capsici,Phytophthora capsici,93.9%
same,Relative inhibition rate (%) In vivo protection,[2]; treatment dose 100 μg/mL,0%
same,Relative inhibition rate (%) In vivo protection,[2]; treatment dose 500 μg/mL,14.4%
same,Bactericidal activity (%) Bipolaria maydis,Bipolaria maydis; 50 mg/kg,79.0%
same,Bactericidal activity (%) Colletotrichum orbiculare,[3],71.4%
same,Bactericidal activity (%) Fusarium graminearumt,Fusarium graminearumt; 50 mg/kg,78.6%
same,Bactericidal activity (%) Sclerotinia scleotiorum,Sclerotinia scleotiorum,80.0%
same,Relative inhibition rate (%) In vitro activity,[5]; treatment dose 100 μg/mL,0%
same,Relative inhibition rate (%) In vitro activity,[5]; treatment dose 500 μg/mL,0%
same,Bactericidal activity (%) potato late blight,potato late blight; 50 mg/kg,50.0%
same,Cotton bollworm Mortality (%),cotton bollworms; concentration 600 mg/kg,15%
same,Bactericidal activity (%) Fusarium fujikuroi,Fusarium fujikuroi,50.0%
same,"activity against armyworms, cotton bollworms and corn borers (in words)",[6],broad-spectrum activity
same,Bactericidal activity (%) Alternaria solani,Alternaria solani,66.7%
same,Relative inhibition rate (%) In vivo therapy,[7]; treatment dose 100 μg/mL,0%
same,Relative inhibition rate (%) In vivo therapy,[7]; treatment dose 500 μg/mL,0%
same,Bactericidal activity (%) Macrophoma kawatsukai,Macrophoma kawatsukai,76.5%
"C[C@@H]1N[C@H](C(=O)N/N=C/c2ccccc2)Cc2c1[nH]c1ccccc21 [Ic-1, (1S, 3S)—N′-benzylidene-1-methyl-2,3,4,9-tetrahydropyridino [3,4-b] indol-3-formylhydrazine]",inhibition of growth at 50 mg/kg,Cercospora arachidicola,72.7%
same,inhibition at 100 µg/mL,[1]; treatment dose 100 μg/mL,19.6%
same,inhibition at 500 µg/mL,[1]; treatment dose 500 μg/mL,56.3%
same,Armyworm Mortality (%),armyworms,75%
same,mortality at 5 mg/kg,mosquito larvae,80%
same,mortality at 10 mg/kg,mosquito larvae,100%
same,activity against culex pipiens larvae (in words),mosquito larvae,still show high activity
same,inhibition of growth at 50 mg/kg,Rhizoctonia solani,48.6%
same,inhibition of growth at 50 mg/kg,Botrytis cinerea,88.9%
same,inhibition of growth at 50 mg/kg,cucumber fusarium wilt,36.4%
same,inhibition of growth at 50 mg/kg,Rhizoctonia cereali,86.5%
same,inhibition of growth at 50 mg/kg,Phytophthora capsici,69.7%
same,inhibition at 100 µg/mL,[2]; treatment dose 100 μg/mL,21.8%
same,inhibition at 500 µg/mL,[2]; treatment dose 500 μg/mL,53.2%
same,inhibition at 50 mg/kg,Bipolaria maydis,60%
same,inhibition of growth at 50 mg/kg,[3],52%
same,inhibition of growth at 50 mg/kg,Fusarium graminearumt,53.8%
same,mortality at 600 mg/kg,corn borers [4],60%
same,inhibition of growth at 50 mg/kg,Sclerotinia scleotiorum,26.9%
same,inhibition at 100 µg/mL,[5]; treatment dose 100 μg/mL,28.4%
same,inhibition at 500 µg/mL,[5]; treatment dose 500 μg/mL,55.8%
same,inhibition of growth at 50 mg/kg,potato late blight,30.4%
same,mortality at 600 mg/kg,cotton bollworms,55%
same,inhibition of growth at 50 mg/kg,Fusarium fujikuroi,58.8%
same,"activity against armyworms, cotton bollworms and corn borers (in words)",[6],broad-spectrum activity
same,inhibition of growth at 50 mg/kg,Alternaria solani,57.1%
same,inhibition at 100 µg/mL,[7]; treatment dose 100 μg/mL,16%
same,inhibition at 500 µg/mL,[7]; treatment dose 500 μg/mL,51.5%
same,inhibition at 50 mg/kg,Macrophoma kawatsukai,36.4%
